Results published in patent US20050288347A1, “Certain triazole-based compounds, compositions, and uses thereof” (priority 2004, published 2005).
Entries after “also recorded” stand apart in the source; their conditions may differ.

Target: protein kinase
Test: HTS ATP-utilizing enzyme assay, off-chip mobility-shift format (Caliper HTS 250)
Assay type: biochemical, human
Settings: kinase(s) for which the compound exhibits protein kinase inhibitory activity; test compound 10 μM; active = greater than three-sigma from the mean activity of inactive compounds
How it was run: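 Single-point screen at 10 μM compound in HEPES pH 7.5 buffer with Triton X-100 and BSA, 2.5 h at 20–22 °C. Substrate-to-phosphopeptide ratio measured by off-chip microfluidic mobility shift; EDTA wells as 100% and DMSO wells as 0% control, hits called at three-sigma limits.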

Kinase	SMILES
AKT1	O=C(CSc1nnc(CNc2ccc(F)cc2)n1CC1CCCO1)N1CCCc2ccccc21 (stereo not shown)
c-TAK1	Cn1c(SCC(=O)N2CCCCCC2)nnc1-c1ccc(S(=O)(=O)N2CCCC2)cc1
AURORA-A	CCn1c(SCC(=O)Nc2cc(OC)c(OC)cc2C(=O)O)nnc1-c1ccc(O)cc1
GSK3-α	O=C(CSc1nnc(-c2ccc(O)cc2)n1-c1cccc(Cl)c1)Nc1ccccc1
GSK3-β; also recorded: GSK3-α	O=C(CSc1nnc(-c2ccc(O)cc2)n1Cc1ccco1)Nc1nc2c(s1)CCCC2
GSK3-β; also recorded: GSK3-α	NC(=O)CSc1nnc(-c2ccc(O)cc2)n1Cc1ccco1
LYNA	C=CCn1c(SCC(=O)NCCCN2CCOCC2)nnc1-c1sc2ccccc2c1Cl
HCK	C=CCn1c(CSc2nc3ccccc3s2)nnc1SCC(=O)NCCO
CHEK2	CCn1c(SCC(=O)Nc2ccccc2)nnc1-c1ccc(O)cc1
SRC	CCn1c(SCC(=O)N(c2ccccc2)c2ccccc2)nnc1-c1ccc(O)cc1
CDK1	COc1ccccc1-n1c(SCC(=O)Nc2ccc3sc(C)nc3c2)nnc1-c1ccccc1O
DAPK1	COCCn1c(SCC(=O)N2c3ccccc3Sc3ccccc32)nnc1-c1cc2ccccc2cc1O
GSK3-α and AKT1	COc1ccc(-n2c(SC(C)C(=O)Nc3ccccc3)nnc2-c2ccc(O)cc2)cc1 (stereo not shown)
GSK3-β; also recorded: GSK3-α	Cc1cc(NC(=O)CSc2nnc(-c3ccc(O)cc3)n2C)no1
CHEK2	COc1ccccc1-n1c(CNc2c(C)cccc2C)nnc1SCC(=O)Nc1cccc(O)c1
FYN	CCOc1ccc(NCc2nnc(SCC(=O)NCC3CCCO3)n2-c2ccccc2OC)cc1 (stereo not shown)
FYN	O=C(CSc1nnc(CSc2nc3ccccc3s2)n1-c1ccccc1)NCCO
CSK	O=C(CSc1nnc(CSc2nc3ccccc3s2)n1-c1ccccc1)NCCN1CCOCC1

Kinase	SMILES
HCK	O=C(CSc1nnc(CSc2nc3ccccc3s2)n1-c1ccccc1)N1CCN(CCO)CC1
GSK3-β and GSK3-α and ABL1	O=C(CSc1nnc(-c2ccncc2)n1CC1CCCO1)Nc1nccs1 (stereo not shown)
GSK3-β; also recorded: GSK3-α	Cc1ccc(NCc2nnc(S)n2CC2CCCO2)cc1Cl (stereo not shown)
GSK3-α; also recorded: AURORA-A	Cc1ccc(-n2c(S)nnc2CNc2ccc(C)c(Cl)c2)cc1
MSK2 and CDK1	COc1ccc(NC(=O)CSc2nnc(-c3ccccc3O)n2-c2ccc(C)cc2)c(OC)c1
AKT1	COc1ccc(-n2c(SC(C)C(=O)Nc3c(C)cccc3C)nnc2-c2ccc(O)cc2)cc1 (stereo not shown)
GSK3-α	CCn1c(SCC(=O)Nc2cccc(C(C)=O)c2)nnc1-c1ccc(O)cc1
GSK3-β; also recorded: GSK3-α	COc1ccc(-n2c(SCC(=O)Nc3cccc(C(C)=O)c3)nnc2-c2ccc(O)cc2)cc1
AKT1	CC(=O)c1ccc(NC(=O)CSc2nnc(-c3ccc(O)cc3)n2C)cc1
CHEK2	CCc1nnc(NC(=O)CSc2nnc(-c3ccc(S(=O)(=O)N4CCN(C)CC4)cc3)n2CC)s1
GSK3-β and GSK3-α and AKT1	CCc1nnc(NC(=O)CSc2nnc(-c3ccc(O)cc3)n2-c2ccc(OC)cc2)s1
PDGFRR-α and GSK3-α and ABL1	CCOc1ccc2nc(NC(=O)CSc3nnc(-c4ccncc4)n3CC3CCCO3)sc2c1 (stereo not shown)
GSK3-α	O=C(CSc1nnc(-c2ccc(O)cc2)n1-c1cccc(Cl)c1)NCc1ccccc1
FYN	O=C(CSc1nnc(-c2ccc([N+](=O)[O-])cc2)n1/C=C/CN1CCOCC1)N1CCOCC1
GSK3-β and MSK2 and GSK3-α	COC(=O)c1ccccc1NC(=O)CSc1nnc(-c2ccc(O)cc2)n1Cc1ccco1
AKT3 and GSK3-β and GSK3-α	COC(=O)c1ccccc1NC(=O)CSc1nnc(-c2ccc(O)cc2)n1Cc1ccccc1
GSK3-β; also recorded: GSK3-α	COC(=O)c1ccccc1NC(=O)CSc1nnc(-c2ccc(O)cc2)n1C

SMILES	Kinase
Cc1nnc(SCC(=O)c2ccc3c(c2)OCCO3)[nH]1	GSK3-α; also recorded: GSK3-β; also recorded: DYRK2
CC(=O)c1cccc(NC(=O)CSc2nnc(-c3ccc(O)cc3)n2C)c1	GSK3-β; also recorded: GSK3-α; also recorded: CHEK2

Same assay, conditions: test compound 10 μM; active = activity greater than three-sigma from the mean of the predominately inactive population for that enzyme

protein kinase against which the compound exhibits inhibitory activity (Table 3)	SMILES
INSR	CC(=O)c1ccc(-n2c(SCCCCc3ccccc3)nnc2-c2cccc(Cl)c2)cc1
ROCK2	CCC(O)CSc1nnc(-c2cccc(Cl)c2)n1-c1ccccc1OC (stereo not shown)
AURORA-A	COc1ccccc1-n1c(SCC(=O)Nc2ccccc2)nnc1-c1ccccc1O
ROCK2	COc1ccccc1-n1c(SCC(O)c2ccccc2)nnc1-c1cccc(Cl)c1 (stereo not shown)
ROCK2	COc1ccccc1-n1c(SCC(=O)c2ccc3c(c2)OCCO3)nnc1-c1cccc(Cl)c1
ROCK2	COc1ccccc1-n1c(SCC(=O)c2ccc(Cl)s2)nnc1-c1cccc(Cl)c1
ROCK2	COc1ccccc1-n1c(SCC(=O)Nc2ccccc2)nnc1-c1cccc(Cl)c1
ROCK2	COc1ccccc1-n1c(SCC(=O)c2ccc(F)cc2)nnc1-c1cccc(Cl)c1
PIM-1-KINASE	COc1ccccc1-n1c(SCCN)nnc1-c1cccc(Cl)c1
ROCK2	COc1ccccc1-n1c(SC2Cc3ccccc3C2=O)nnc1-c1cccc(Cl)c1 (stereo not shown)
LCK	C=C(C)Cn1c(SCC(=O)NN)nnc1-c1ccc(Br)cc1
ROCK2	COc1ccccc1-n1c(SCc2ccc(Cl)nc2)nnc1-c1cccc(Cl)c1
FYN and FLT-3 and CSK	Cn1c(SCC(=O)NNC(=O)c2ccccc2O)nnc1-c1ccccc1
AURORA-A	Cc1ccc(-n2c(SCC(=O)NNC(=O)c3ccccc3O)nnc2-c2ccccc2O)cc1
ROCK2	COc1ccccc1-n1c(SCCn2cccc2)nnc1-c1cccc(Cl)c1
ROCK2	COc1ccccc1-n1c(SCc2ccc(F)c(F)c2)nnc1-c1cccc(Cl)c1
ROCK2	COc1ccccc1-n1c(SCc2cccc(C(=O)O)c2)nnc1-c1cccc(Cl)c1
AURORA-A	COc1ccccc1-n1c(SCc2ccc(C(=O)O)cc2)nnc1-c1cccc(Cl)c1
ROCK2	COc1ccccc1-n1c(SCc2csc(C)n2)nnc1-c1cccc(Cl)c1
AURORA-A	O=C(CSc1nnc(-c2ccc(O)cc2)n1-c1ccccc1)NNC(=O)c1ccc(Cl)cc1
SYK	COc1ccc(C(=O)NNC(=O)CSc2nnc(C)n2CC2CCCO2)cc1 (stereo not shown)

protein kinase against which the compound exhibits inhibitory activity (Table 3)	SMILES
DGFRR-α	COc1ccc(C(=O)NNC(=O)CSc2nnc(C)n2CCc2ccccc2)cc1
ROCK2	COc1ccccc1-n1c(SCCC2COCCN2)nnc1-c1cccc(Cl)c1 (stereo not shown)
AURORA-A	COc1ccccc1-n1c(SCC(=O)Nc2cccc(NC(=O)C3CCCO3)c2)nnc1-c1ccccc1O (stereo not shown)
AURORA-A	O=C(CSc1nnc(-c2ccc(O)cc2)n1-c1ccccc1)NN(Br)C(=O)c1ccccc1
SGK1	Cn1c(SCC(=O)NN(Br)C(=O)c2ccccc2)nnc1C1CCCCC1
FYN and FLT-3 and SYK	COc1ccccc1-n1c(SCC(=O)NN(O)C(=O)c2ccccc2)nnc1-c1ccccc1O
FYN	O=C(CSc1nnc(-c2ccncc2)n1-c1ccc(F)cc1)NN(O)C(=O)c1ccccc1
FYN and HCK	O=C(CSc1nnc(-c2ccccc2O)n1Cc1ccccc1)NNC(=O)c1ccccc1O
GSK3-a; also recorded: AURORA-A	CCn1c(SCC(=O)NNC(=O)c2ccc(OC)cc2)nnc1-c1ccc(O)cc1
AURORA-A	CCn1c(SCC(=O)NNC(=O)C2CCCCC2)nnc1-c1ccncc1
AURORA-A; also recorded: DYRK2	CCn1c(CNc2ccccc2Cl)nnc1SCC(=O)NNC(=O)c1ccc(OC)cc1
PDGFRR-α and GSK3-β and CDK1	COc1ccc(C(=O)NNC(=O)CSc2nnc(CNc3cccc(Cl)c3)n2CCc2ccccc2)cc1
LCK	Cc1ccc(C(=O)NNC(=O)CSc2nnc(COc3ccc(C#N)cc3)n2-c2ccccc2)cc1
FYN and SRC and HCK	Cc1cc(C)nc(SCc2nnc(SCC(=O)NNC(=O)c3ccccc3O)n2-c2ccccc2)n1
FYN and SRC and FLT-3	Cc1cc(C)nc(SCc2nnc(SCC(=O)NNC(=O)c3ccccc3O)n2C)n1
MAPKAPK-2	Cn1c(Cn2nnc3ccccc32)nnc1SCC(=O)C1c2ccccc2CCc2ccccc21
DAPK1	CCN(CC)S(=O)(=O)c1ccc(-c2nnc(SCC(=O)N3c4ccccc4CCc4ccccc43)n2CC)cc1
MSK2	Cc1cccc(OCc2nnc(SCC(=O)N3c4ccccc4CCc4ccccc43)n2C)c1C
CHEK2 and INSR and AURORA-A	COc1cc2c(cc1NC(=O)CSc1nncn1C)oc1ccccc12
LCK	O=C(CSc1nnc[nH]1)N1c2ccccc2CCc2ccccc21

SMILES	protein kinase against which the compound exhibits inhibitory activity (Table 3)
COc1ccc(C(=O)NNC(=O)CSc2nnc(-c3ccc(O)cc3)n2Cc2ccco2)cc1	GSK3-β; also recorded: AURORA-A; also recorded: PDGFRR-α
